Assay results reported in US20230146455A1, “TREATMENT OF INFLAMMATORY DISEASES WITH PEPTIDES AND PHARMACEUTICAL COMPOSITIONS” (Yuyu Pharma, Inc., priority 2020, published 2023).
Values joined by “and” are separate entries in the source; they are usually repeats but may differ in a detail not shown here. Equal entries are not always repeated. Where a SMILES comes first, the peptide text is derived from it. [ ]: non-standard residue; d: D form. Hyp = O=C(O)[C@@H]1C[C@@H](O)CN1

System: Fas Ligand
Assay: Example 9 Luminex, LPS hPBMCs: Fas Ligand
Format: cell-based, human
Settings: for Fas Ligand Concentration / Fas Ligand conc/live cell / MFI, bead Fas Ligand: single replicates
Description: Treatment Human PBMCs were pretreated with YY-101, YDE-011 and YDE-043 or reference compound; Xiidra® at various concentration (ranging from 1 nM to 100 uM) for 2 h before stimulation. An equal volume of 0.5% DMSO was used as a vehicle control. Then, the cells were treated with LPS at 5 ug/ml. The supernatants from treated cells were harvested at 24 h and placed in a 96 well for Luminex cytokine & chemokine profiling using a Luminex 200 multiplex assay (Luminex; R&D system, USA).
The main study arm with triplicate wells per group in a 24-well plate: • 1. Blank • 2. PBMC: 0.5% DMSO • 3. PBMC+LPS (5 ug/ml) • 4. PBMC+YY-101 100 uM • 5. PBMC+YY-101 10 uM • 6. PBMC+YY-101 1 uM • 7. PBMC+YY-101 0.1 uM • 8. PBMC+YY-101 0.01 uM • 9. PBMC+LPS (5 ug/ml)+Xiidra®100 uM • 10. PBMC+LPS (5 ug/ml)+Xiidra® 10 uM • 11. PBMC+LPS (5 ug/ml)+Xiidra® 1 uM • 12. PBMC+LPS (5 ug/ml)+Xiidra®0.1 uM • 13. PBMC+LPS (5 ug/ml)+Xiidra®0.01 uM • 14. PBMC+LPS (5 ug/ml)+Xiidra®0.001 uM • 15. PBMC+LPS (5 ug/ml)+YY-101 100 uM • 16. PBMC+LPS (5 ug/ml)+YY-101 10 uM • 17. PBMC+LPS (5 ug/ml)+YY-101 1 uM • 18. PBMC+LPS (5 ug/ml)+YY-101 0.1 uM • 19. PBMC+LPS (5 ug/ml)+YY-101 0.01 uM • 20. PBMC+LPS (5 ug/ml)+YY-101 0.001 uM • 21. PBMC+LPS (5 ug/ml)+YDE-011 100 uM • 22. PBMC+LPS (5 ug/ml)+YDE-011 10 uM • 23. PBMC+LPS (5 ug/ml)+YDE-011 1 uM • 24. PBMC+LPS (5 ug/ml)+YDE-011 0.1 uM • 25. PBMC+LPS (5 ug/ml)+YDE-011 0.01 uM • 26. PBMC+LPS (5 ug/ml)+YDE-011 0.001 uM • 27. PBMC+LPS (5 ug/ml)+YDE-043 100 uM • 28. PBMC+LPS (5 ug/ml)+YDE-043 10 uM • 29. PBMC+LPS (5 ug/ml)+YDE-043 1 uM • 30. PBMC+LPS (5 ug/ml)+YDE-043 0.1 uM • 31. PBMC+LPS (5 ug/ml)+YDE-043 0.01 uM • 32. PBMC+LPS (5 ug/ml)+YDE-043 0.001 uM
Multiplex assay was used to measure 30 cytokines and chemokines. The 1:2, 1:10 and 1:200 diluted cell supernatant and serial dilution of the standard were dispensed into a 96 well plate at 50 ul/well. Then, the pre-mixed cocktail of antibody-coated magnetic beads was dispensed at 50 ul/well and incubated at room temperature for 2 h in a horizontal orbital microplate shaker at 800±500 rpm. The beads were washed using a magnetic device to prevent loss. The biotin-antibody was dispensed in 50 ul of each well and incubated at room temperature for 1 h in a shaker at 800±500 rpm. After washing, streptavidin-PE was added at 50 ul/well and incubated at room temperature for 30 min in a shaker under the same conditions. Finally, after washing, wash buffer (100 ul/well) was added to the plate and incubated in a shaker for 2 min. The Luminex™ 200 setting were set according to the manufacturer's protocol. The data was calculated with a standard five-parameter logistic nonlinear regression analysis of the data (xPonent software 4.2, USA). The levels of cytokine/chemokine are normalized to the live cell counts (1×10^5 cells/mL) and presented as concentrations per mL (pg/mL or ng/mL).

[1] = PBMC + LPS(5 ug/ml) + test article 0.001 uM
[2] = PBMC + LPS(5 ug/ml) + test article 0.01 uM
[3] = PBMC + LPS(5 ug/ml) + test article 0.1 uM
[4] = PBMC + LPS(5 ug/ml) + test article 1 uM
[5] = PBMC + LPS(5 ug/ml) + test article 10 uM
[6] = PBMC + LPS(5 ug/ml) + test article 100 uM

## CC(C)C[C@H](NC(=O)[C@H](CCC(N)=O)NC(=O)CNC(=O)[C@@H]1C[C@@H](O)CN1)C(=O)NCC(=O)O [YDE-043] (H-[Hyp]GQLG-OH; N-terminus and C-terminus assumed)
[1]
  Fas Ligand Concentration, Mean: 16.8 pg/mL
  Fas Ligand conc/live cell, Mean: 3.4 pg/10^5
  MFI, bead Fas Ligand, Mean: 22.7
  Fas Ligand Concentration: 17.1 pg/mL and 20.4 pg/mL and 13.1 pg/mL
  Fas Ligand conc/live cell: 3.9 pg/10^5 and 3.4 pg/10^5 and 2.8 pg/10^5
  MFI, bead Fas Ligand: 23.0 and 28.0 and 17.0
[2]
  Fas Ligand Concentration, Mean: 21.9 pg/mL
  Fas Ligand conc/live cell, Mean: 4.3 pg/10^5
  MFI, bead Fas Ligand, Mean: 30.2
  Fas Ligand Concentration: 19.1 pg/mL and 15.7 pg/mL and 31.0 pg/mL
  Fas Ligand conc/live cell: 4.2 pg/10^5 and 2.4 pg/10^5 and 6.2 pg/10^5
  MFI, bead Fas Ligand: 26.0 and 21.0 and 43.5
[3]
  Fas Ligand Concentration, Mean: 13.2 pg/mL
  Fas Ligand conc/live cell, Mean: 2.5 pg/10^5
  MFI, bead Fas Ligand, Mean: 17.2
  Fas Ligand Concentration: 14.4 pg/mL and 12.7 pg/mL and 12.4 pg/mL
  Fas Ligand conc/live cell: 2.9 pg/10^5 and 2.3 pg/10^5 and 2.2 pg/10^5
  MFI, bead Fas Ligand: 19.0 and 16.5 and 16.0
[4]
  Fas Ligand Concentration, Mean: 16.6 pg/mL
  Fas Ligand conc/live cell, Mean: 3.2 pg/10^5
  MFI, bead Fas Ligand, Mean: 22.3
  Fas Ligand Concentration: 13.7 pg/mL and 15.7 pg/mL and 20.4 pg/mL
  Fas Ligand conc/live cell: 2.4 pg/10^5 and 3.3 pg/10^5 and 3.9 pg/10^5
  MFI, bead Fas Ligand: 18.0 and 21.0 and 28.0
[5]
  Fas Ligand Concentration, Mean: 16.4 pg/mL
  Fas Ligand conc/live cell, Mean: 3.0 pg/10^5
  MFI, bead Fas Ligand, Mean: 22.0
  Fas Ligand Concentration: 16.4 pg/mL and 17.1 pg/mL and 15.7 pg/mL
  Fas Ligand conc/live cell: 3.2 pg/10^5 (2×) and 2.8 pg/10^5
  MFI, bead Fas Ligand: 22.0 and 23.0 and 21.0
[6]
  Fas Ligand Concentration, Mean: 13.2 pg/mL
  Fas Ligand conc/live cell, Mean: 2.1 pg/10^5
  MFI, bead Fas Ligand, Mean: 17.3
  Fas Ligand Concentration: 15.0 pg/mL and 11.4 pg/mL
  Fas Ligand conc/live cell: 2.4 pg/10^5 and 1.8 pg/10^5
  MFI, bead Fas Ligand: 20.0 and 14.5
